Patent US7138361B2, “Herbicidal heterocycles” (E. I. du Pont de Nemours and Company, priority 2000, dated 2006)

What was measured:
Format in all cases: in vivo
[1] = system: Surinam grass (Brachiaria decumbens); assay: Test B postemergence; conditions: 13 to 15 days
How it was run: (§1)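 Seeds were planted and sprayed preemergence with test chemical in a non-phytotoxic solvent mixture containing surfactant; postemergence plants (2 to 18 cm, 1- to 4-leaf stage) received the same formulation. Greenhouse hold 13 to 15 days, then visual rating versus untreated controls on a 0–100 scale (0 no effect, 100 complete control).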

[2] = system: crabgrass (Digitaria sanguinalis); assay: Test B postemergence; conditions: 13 to 15 days
How it was run: as §1

[3] = system: wheat (Triticum aestivum); assay: Test B postemergence; conditions: 13 to 15 days
How it was run: as §1

[4] = system: morning glory (Ipomoea hederacea); assay: Test B postemergence; conditions: 13 to 15 days
How it was run: as §1

wild oat (Avena fatua) = assay: Test B postemergence; conditions: 13 to 15 days
How it was run: as §1

[5] = system: barnyardgrass (Echinochloa crus-galli); assay: Test B postemergence; conditions: 13 to 15 days
How it was run: as §1

[6] = system: velvetleaf (Abutilon theophrasti); assay: Test B postemergence; conditions: 13 to 15 days
How it was run: as §1

[7] = system: cocklebur (Xanthium strumarium); assay: Test B postemergence; conditions: 13 to 15 days
How it was run: as §1

[8] = system: lambsquarters (Chenopodium album); assay: Test B postemergence; conditions: 13 to 15 days
How it was run: as §1

[9] = system: giant foxtail (Setaria faberii); assay: Test B postemergence; conditions: 13 to 15 days
How it was run: as §1

[10] = system: blackgrass (Alopecurus myosuroides); assay: Test B postemergence; conditions: 13 to 15 days
How it was run: as §1

[11] = system: pigweed (Amaranthus retroflexus); assay: Test B postemergence; conditions: 13 to 15 days
How it was run: as §1

corn (Zea mays) [12] = assay: Test B postemergence; conditions: 13 to 15 days
How it was run: as §1

[13] = system: Surinam grass (Brachiaria decumbens); assay: Test B preemergence; conditions: scale 0 to 100, 0 no effect, 100 complete control
How it was run: as §1

[14] = system: crabgrass (Digitaria sanguinalis); assay: Test B preemergence; conditions: scale 0 to 100, 0 no effect, 100 complete control
How it was run: as §1

[15] = system: morning glory (Ipomoea hederacea); assay: Test B preemergence; conditions: Preemergence, Rate 500 g/ha; scale 0 to 100, 0 no effect, 100 complete control
How it was run: as §1

[16] = system: barnyardgrass (Echinochloa crus-galli); assay: Test B preemergence; conditions: scale 0 to 100, 0 no effect, 100 complete control
How it was run: as §1

[17] = system: velvetleaf (Abutilon theophrasti); assay: Test B preemergence; conditions: Preemergence, Rate 500 g/ha; scale 0 to 100, 0 no effect, 100 complete control
How it was run: as §1

rice (Oryza saliva) = assay: Test B preemergence; conditions: Preemergence, Rate 500 g/ha; scale 0 to 100, 0 no effect, 100 complete control
How it was run: as §1

[18] = system: cocklebur (Xanthium strumarium); assay: Test B preemergence; conditions: scale 0 to 100, 0 no effect, 100 complete control
How it was run: as §1

[19] = system: lambsquarters (Chenopodium album); assay: Test B preemergence; conditions: scale 0 to 100, 0 no effect, 100 complete control
How it was run: as §1

[20] = system: giant foxtail (Setaria faberii); assay: Test B preemergence; conditions: scale 0 to 100, 0 no effect, 100 complete control
How it was run: as §1

[21] = system: pigweed (Amaranthus retroflexus); assay: Test B preemergence; conditions: Preemergence, Rate 500 g/ha; scale 0 to 100, 0 no effect, 100 complete control
How it was run: as §1

corn (Zea mays) [22] = assay: Test B preemergence; conditions: scale 0 to 100, 0 no effect, 100 complete control
How it was run: as §1

Sunflower = assay: Test C preemergence; conditions: Rate 250 g/ha, visual evaluation after 12 to 14 days
[23] = system: smallflower flatsedge (Cyperus difformis); assay: Test C flooded paddy test; conditions: for Flatsedge plant response rating: Flooded Paddy, scale 0 to 100, 0 no effect, 100 complete control; for Plant response rating, Flatsedge: flooded paddy test, scale 0 to 100 (0 no effect, 100 complete control)
How it was run: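 Visual injury score, 0 (no effect) to 100 (complete control), relative to controls. Paddy plants treated at 2-leaf stage; greenhouse hold 12–14 d before rating.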

Nightshade = assay: Test C preemergence; conditions: Rate 250 g/ha, visual evaluation after 12 to 14 days
[24] = Rate 125 g/ha, scale 0 (no effect) to 100 (complete control)
[25] = Rate 500 g/ha, scale 0 to 100, 0 is no effect, 100 is complete control

O=C1C(n2ccc(C3CCC3)n2)SCN1c1cccc(C(F)(F)F)c1 (centres unmarked) [Compound 37]
Plant response rating, Surinam grass [1, 24]: 0
Plant response rating, Surinam grass [1, 25]: 0
Plant response rating, Crabgrass [2, 24]: 0
Plant response rating, Crabgrass [2, 25]: 100
Plant response rating, Wheat [3, 24]: 0
Plant response rating, Wheat [3, 25]: 0
Plant response rating, Morningglory [4, 24]: 20
Plant response rating, Morningglory [4, 25]: 40
Plant response rating, Wild Oat (wild oat (Avena fatua); [24]): 0
Plant response rating, Wild Oat (wild oat (Avena fatua); [25]): 0
Plant response rating, Barnyardgrass [5, 24]: 80
Plant response rating, Barnyardgrass [5, 25]: 100
Plant response rating, Velvetleaf [6, 24]: 0
Plant response rating, Velvetleaf [6, 25]: 0
Plant response rating, Cocklebur [7, 24]: 10
Plant response rating, Cocklebur [7, 25]: 30
Plant response rating, Lambsquarters [8, 24]: 0
Plant response rating, Lambsquarters [8, 25]: 90
Plant response rating, Foxtail, Giant [9, 24]: 60
Plant response rating, Foxtail, Giant [9, 25]: 80
Plant response rating, Blackgrass [10, 24]: 0
Plant response rating, Blackgrass [10, 25]: 0
Plant response rating, Pigweed [11, 24]: 20
Plant response rating, Pigweed [11, 25]: 90
Plant response rating, Corn (corn (Zea mays) [12]; [24]): 0
Plant response rating, Corn (corn (Zea mays) [12]; [25]): 20
Plant response rating, Surinam grass ([13]; Preemergence, Rate 500 g/ha): 0
Plant response rating, Surinam grass ([13]; preemergence, Rate 125 g/ha): 0
Plant response rating, Crabgrass ([14]; Preemergence, Rate 500 g/ha): 100
Plant response rating, Crabgrass ([14]; preemergence, Rate 125 g/ha): 0
Plant response rating, Morningglory [15]: 0
Plant response rating, Barnyardgrass ([16]; Preemergence, Rate 500 g/ha): 100
Plant response rating, Barnyardgrass ([16]; preemergence, Rate 125 g/ha): 0
Plant response rating, Velvetleaf [17]: 0
Plant response rating, Rice (rice (Oryza saliva)): 0
Plant response rating, Cocklebur ([18]; preemergence, Rate 125 g/ha): 0
Plant response rating, Lambsquarters ([19]; Preemergence, Rate 500 g/ha): 100
Plant response rating, Lambsquarters ([19]; preemergence, Rate 125 g/ha): 100
Plant response rating, Foxtail, Giant ([20]; Preemergence, Rate 500 g/ha): 100
Plant response rating, Foxtail, Giant ([20]; preemergence, Rate 125 g/ha): 40
Plant response rating, Pigweed [21]: 100
Plant response rating, Corn (corn (Zea mays) [22]; Preemergence, Rate 500 g/ha): 0
Plant response rating, Corn (corn (Zea mays) [22]; preemergence, Rate 125 g/ha): 0
Plant response rating (0 to 100), Sunflower (Sunflower): 60
Flatsedge plant response rating ([23]; Rate 250 g/ha): 100
Flatsedge plant response rating ([23]; Rate 500 g/ha): 100
Plant response rating, Flatsedge ([23]; Rate 62 g/ha): 100
Plant response rating, Flatsedge ([23]; Rate 125 g/ha): 100
Plant response rating (0 to 100), Nightshade (Nightshade): 0

O=C1C(n2ccc(C3CCC3)n2)SCN1c1cccc(OC(F)(F)F)c1 (centres unmarked) [Compound 38]
Plant response rating, Surinam grass [1, 24]: 0
Plant response rating, Surinam grass [1, 25]: 0
Plant response rating, Crabgrass [2, 24]: 60
Plant response rating, Crabgrass [2, 25]: 100
Plant response rating, Wheat [3, 24]: 0
Plant response rating, Wheat [3, 25]: 0
Plant response rating, Morningglory [4, 24]: 10
Plant response rating, Morningglory [4, 25]: 20
Plant response rating, Wild Oat (wild oat (Avena fatua); [24]): 0
Plant response rating, Wild Oat (wild oat (Avena fatua); [25]): 0
Plant response rating, Barnyardgrass [5, 24]: 100
Plant response rating, Barnyardgrass [5, 25]: 100
Plant response rating, Velvetleaf [6, 24]: 0
Plant response rating, Velvetleaf [6, 25]: 70
Plant response rating, Cocklebur [7, 24]: 40
Plant response rating, Cocklebur [7, 25]: 80
Plant response rating, Lambsquarters [8, 24]: 80
Plant response rating, Lambsquarters [8, 25]: 90
Plant response rating, Foxtail, Giant [9, 24]: 30
Plant response rating, Foxtail, Giant [9, 25]: 80
Plant response rating, Blackgrass [10, 24]: 0
Plant response rating, Blackgrass [10, 25]: 0
Plant response rating, Pigweed [11, 24]: 60
Plant response rating, Pigweed [11, 25]: 80
Plant response rating, Corn (corn (Zea mays) [12]; [24]): 0
Plant response rating, Corn (corn (Zea mays) [12]; [25]): 0
Plant response rating, Surinam grass ([13]; Preemergence, Rate 500 g/ha): 60
Plant response rating, Surinam grass ([13]; preemergence, Rate 125 g/ha): 0
Plant response rating, Crabgrass ([14]; Preemergence, Rate 500 g/ha): 100
Plant response rating, Crabgrass ([14]; preemergence, Rate 125 g/ha): 0
Plant response rating, Morningglory [15]: 0
Plant response rating, Barnyardgrass ([16]; Preemergence, Rate 500 g/ha): 100
Plant response rating, Barnyardgrass ([16]; preemergence, Rate 125 g/ha): 70
Plant response rating, Velvetleaf [17]: 0
Plant response rating, Rice (rice (Oryza saliva)): 10
Plant response rating, Cocklebur ([18]; Preemergence, Rate 500 g/ha): 0
Plant response rating, Lambsquarters ([19]; Preemergence, Rate 500 g/ha): 100
Plant response rating, Lambsquarters ([19]; preemergence, Rate 125 g/ha): 100
Plant response rating, Foxtail, Giant ([20]; Preemergence, Rate 500 g/ha): 100
Plant response rating, Foxtail, Giant ([20]; preemergence, Rate 125 g/ha): 0
Plant response rating, Pigweed [21]: 100
Plant response rating, Corn (corn (Zea mays) [22]; Preemergence, Rate 500 g/ha): 0
Plant response rating, Corn (corn (Zea mays) [22]; preemergence, Rate 125 g/ha): 0
Plant response rating (0 to 100), Sunflower (Sunflower): 60
Flatsedge plant response rating ([23]; Rate 250 g/ha): 100
Flatsedge plant response rating ([23]; Rate 500 g/ha): 100
Plant response rating, Flatsedge ([23]; Rate 62 g/ha): 100
Plant response rating, Flatsedge ([23]; Rate 125 g/ha): 100
Plant response rating (0 to 100), Nightshade (Nightshade): 60
